What all share (experiment): MIC, agar dilution test; Denley multipoint inoculation procedure
Type in all cases: cell-based
A general note: In agar dilution, organisms are placed on agar that contains the substance at set levels.

The test system of one assay is E. coli A 261. The following applies: Escherichia coli, A261, read-out: Minimum inhibitory concentration. From the text: (§1) In the table below, the minimum inhibitory concentrations (MIC) with a variety of bacteria for some of the compounds according to the invention are given. |Minimum inhibitory concentrations in mcg/ml in the agar dilution test;
The next assay concerns E. coli Neumann. The following applies: Escherichia coli, read-out: Minimum inhibitory concentration.
Text: as §1

The subject of a further assay is Klebsiella 57 USA. The following applies: read-out: Minimum inhibitory concentration.
Text: as §1

Another assay has as its system Klebsiella 6179. The settings on record: read-out: Minimum inhibitory concentration.
Text: as §1

The subject of a further assay is Klebsiella 8085. The settings on record: read-out: Minimum inhibitory concentration.
Text: as §1

The subject of the next assay is Proteus morganii 932. The settings on record: Morganella morganii, read-out: Minimum inhibitory concentration.
Text: as §1

The subject of the next assay is Providencia 12052. The settings on record: read-out: Minimum inhibitory concentration.
Text: as §1

In the next assay the test system is Staphylococcus 133. The settings on record: read-out: Minimum inhibitory concentration.
Text: as §1

The next assay deals with Staphylococcus 1746. The settings on record: read-out: Minimum inhibitory concentration.
Text: as §1

For the next assay, the system named is Staphylococcus Fk 422. The following applies: FK422, read-out: Minimum inhibitory concentration.
Text: as §1

≈ marks a conversion by molar mass, not a printed value.

Take `CC(=O)CN1CCN(c2cc3c(cc2F)c(=O)c(C(=O)O)cn3C2CC2)CC1` [Example 1, 1-cyclopropyl-6-fluoro-1,4-dihydro-4-oxo-7-[4-(2-oxopropyl)-1-piperazinyl]quinoline-3-carboxylic acid]: the MIC was no more than 0.015 µg/mL with E. coli A 261; 0.06 µg/mL (≈ 0.155 µM) with E. coli Neumann; 1 µg/mL (≈ 2.58 µM) in the assay with Klebsiella 57 USA; 2 µg/mL (≈ 5.16 µM) in the assay with Klebsiella 6179; 0.06 µg/mL (≈ 0.155 µM) in the assay with Klebsiella 8085; 0.06 µg/mL (≈ 0.155 µM) in the assay with Proteus morganii 932. Further, the MIC with Providencia 12052 is 128 µg/mL (≈ 330 µM); with Staphylococcus 133 it was 0.25 µg/mL (≈ 0.645 µM); in the assay with Staphylococcus 1746, 0.25 µg/mL (≈ 0.645 µM); with Staphylococcus Fk 422, 0.25 µg/mL (≈ 0.645 µM).

For `O=C(CN1CCN(c2cc3c(cc2F)c(=O)c(C(=O)O)cn3C2CC2)CC1)c1ccccc1` [Example 4], the MIC in the assay on E. coli A 261 is no more than 0.015 µg/mL; in the assay on E. coli Neumann, 0.03 µg/mL (≈ 0.0667 µM); in the assay with Klebsiella 57 USA, 0.06 µg/mL (≈ 0.133 µM); with Klebsiella 6179, 0.5 µg/mL (≈ 1.11 µM); with Klebsiella 8085, 0.125 µg/mL (≈ 0.278 µM); in the assay with Proteus morganii 932, no more than 0.015 µg/mL. The MIC turned out to be 128 µg/mL (≈ 285 µM) in the assay with Providencia 12052, 2 µg/mL (≈ 4.45 µM) in the assay on Staphylococcus 133, 1 µg/mL (≈ 2.22 µM) with Staphylococcus 1746 and 2 µg/mL (≈ 4.45 µM) in the assay with Staphylococcus Fk 422.

`O=C(CN1CCN(c2cc3c(cc2F)c(=O)c(C(=O)O)cn3C2CC2)CC1)c1ccc(O)cc1O` [Example 5]: the MIC in the assay on Staphylococcus 133, in the assay on Staphylococcus 1746 and in the assay with Staphylococcus Fk 422 was 0.25 µg/mL (≈ 0.519 µM) each time.

On to `O=C(CN1CCN(c2cc3c(cc2F)c(=O)c(C(=O)O)cn3C2CC2)CC1)c1ccc(F)cc1` [Example 8], for which the MIC in the assay on E. coli A 261 is no more than 0.015 µg/mL; in the assay with E. coli Neumann it was 0.015 µg/mL (≈ 0.0321 µM); in the assay on Klebsiella 57 USA it was 0.03 µg/mL (≈ 0.0642 µM); in the assay on Klebsiella 6179 it was 0.25 µg/mL (≈ 0.535 µM); in the assay on Klebsiella 8085, 0.03 µg/mL (≈ 0.0642 µM); with Proteus morganii 932 it was no more than 0.015 µg/mL. The MIC worked out at 64 µg/mL (≈ 137 µM) in the assay on Providencia 12052, 1 µg/mL (≈ 2.14 µM) with Staphylococcus 133, 1 µg/mL (≈ 2.14 µM) in the assay with Staphylococcus 1746 and 1 µg/mL (≈ 2.14 µM) in the assay with Staphylococcus Fk 422.

With `O=C(CN1CCN(c2cc3c(cc2F)c(=O)c(C(=O)O)cn3C2CC2)CC1)c1ccc(Cl)cc1` [Example 9], the MIC with E. coli A 261 is no more than 0.015 µg/mL; in the assay with E. coli Neumann, 0.03 µg/mL (≈ 0.062 µM); with Klebsiella 57 USA it was 0.5 µg/mL (≈ 1.03 µM); in the assay on Klebsiella 6179, 1 µg/mL (≈ 2.07 µM); in the assay on Klebsiella 8085, 0.125 µg/mL (≈ 0.258 µM); in the assay with Proteus morganii 932, 0.03 µg/mL (≈ 0.062 µM). Also, the MIC was greater than 128 µg/mL in the assay with Providencia 12052, 2 µg/mL (≈ 4.13 µM) with Staphylococcus 133, 2 µg/mL (≈ 4.13 µM) in the assay on Staphylococcus 1746 and 2 µg/mL (≈ 4.13 µM) with Staphylococcus Fk 422.

For the compound `CC(=O)CCN1CCN(c2cc3c(cc2F)c(=O)c(C(=O)O)cn3C2CC2)CC1` [Example 12, 1-cyclopropyl-6-fluoro-1,4-dihydro-4-oxo-7-[4-(3-oxobutyl)-1-piperazinyl]quinoline-3-carboxylic acid], the MIC in the assay with E. coli A 261 is no more than 0.015 µg/mL; with E. coli Neumann, no more than 0.015 µg/mL; with Klebsiella 57 USA, 0.06 µg/mL (≈ 0.149 µM); in the assay with Klebsiella 6179, 0.25 µg/mL (≈ 0.623 µM); in the assay with Klebsiella 8085, no more than 0.015 µg/mL; with Proteus morganii 932 it was no more than 0.015 µg/mL. Further, the MIC with Providencia 12052 came to 32 µg/mL (≈ 79.7 µM); with Staphylococcus 133, 0.5 µg/mL (≈ 1.25 µM); in the assay with Staphylococcus 1746, 0.5 µg/mL (≈ 1.25 µM); in the assay with Staphylococcus Fk 422, 0.5 µg/mL (≈ 1.25 µM).
